Test results: PMC7717600, “Novel [(N-alkyl-3-indolylmethylene)hydrazono]oxindoles arrest cell cycle and induce cell apoptosis by inhibiting CDK2 and Bcl-2: synthesis, biological evaluation and in silico studies” (Journal of Enzyme Inhibition and Medicinal Chemistry, 2020)

Key:
[1] = tested on: COLO 205; assay: NCI SRB screening; assay type: cell-based, human; settings: COLO 205, 10 μM
[2] = tested on: HCC-2998; assay: NCI SRB screening; assay type: cell-based, human; settings: HCC-2998, 10 μM
[3] = tested on: M14; assay: NCI SRB screening; assay type: cell-based; settings: M14, 10 μM
[4] = tested on: MDA-MB-435; assay: NCI SRB screening; assay type: cell-based; settings: MDA-MB-435, 10 μM
[5] = tested on: RPMI-8226; settings: RPMI-8226, 10 μM
[6] = tested on: SR; settings: 10 μM
[7] = tested on: HOP-62; settings: HOP-62, 10 μM
[8] = tested on: HT29; settings: HT29, 10 μM
[9] = tested on: SF-295; settings: SF-295, 10 μM
[10] = tested on: SNB-19; settings: SNB-19, 10 μM
[11] = tested on: U251; settings: U251, 10 μM
[12] = tested on: SK-MEL-2; settings: SK-MEL-2, 10 μM
[13] = tested on: UACC-62; settings: UACC-62, 10 μM
[14] = tested on: OVCAR-4; settings: OVCAR-4, 10 μM
[15] = tested on: 786-0; settings: 786-0, 10 μM
[16] = tested on: A498; settings: A498, 10 μM
[17] = tested on: DU-145; settings: DU-145, 10 μM
[18] = tested on: MCF7; settings: MCF7, 10 μM
[19] = tested on: T-47D; settings: 10 μM

Row | Compound | GI % [1] | GI % [2] | GI % [3] | GI % [4] | GI % [5] | GI % [6] | GI % [7] | GI % [8] | GI % [9] | GI % [10] | GI % [11] | GI % [12] | GI % [13] | GI % [14] | GI % [15] | GI % [16] | GI % [17] | GI % [18] [%] | GI % [19]
1 | CC(C)n1cc(C=NN=C2C(=O)Nc3ccccc32)c2ccccc21 [Compound 9] | – (Only GI % higher than 10% are shown) | – (Only GI % higher than 10% are shown) | – (Only GI % higher than 10% are shown) | – (Only GI % higher than 10% are shown) | – (Only GI % higher than 10% are shown) | 11% | – (Only GI % higher than 10% are shown) | – (Only GI % higher than 10% are shown) | – (Only GI % higher than 10% are shown) | – (Only GI % higher than 10% are shown) | – (Only GI % higher than 10% are shown) | – (Only GI % higher than 10% are shown) | – (Only GI % higher than 10% are shown) | – (Only GI % higher than 10% are shown) | – (Only GI % higher than 10% are shown) | – (Only GI % higher than 10% are shown) | – (Only GI % higher than 10% are shown) | 10 | 13%
2 | CCCn1cc(C=NN=C2C(=O)Nc3ccc([N+](=O)[O-])cc32)c2ccccc21 [Compound 8c] | – (Only GI % higher than 10% are shown) | – (Only GI % higher than 10% are shown) | – (Only GI % higher than 10% are shown) | – (Only GI % higher than 10% are shown) | – (Only GI % higher than 10% are shown) | 19% | – (Only GI % higher than 10% are shown) | – (Only GI % higher than 10% are shown) | – (Only GI % higher than 10% are shown) | 22% | 28% | – (Only GI % higher than 10% are shown) | – (Only GI % higher than 10% are shown) | – (Only GI % higher than 10% are shown) | – (Only GI % higher than 10% are shown) | – (Only GI % higher than 10% are shown) | – (Only GI % higher than 10% are shown) | 15 | – (Only GI % higher than 10% are shown)
3 | C=CCn1cc(C=NN=C2C(=O)Nc3c(F)cccc32)c2ccccc21 [Compound 10c] | – (Only GI % higher than 10% are shown) | – (Only GI % higher than 10% are shown) | – (Only GI % higher than 10% are shown) | – (Only GI % higher than 10% are shown) | – (Only GI % higher than 10% are shown) | 58% | – (Only GI % higher than 10% are shown) | – (Only GI % higher than 10% are shown) | – (Only GI % higher than 10% are shown) | – (Only GI % higher than 10% are shown) | – (Only GI % higher than 10% are shown) | – (Only GI % higher than 10% are shown) | 15% | 22% | – (Only GI % higher than 10% are shown) | – (Only GI % higher than 10% are shown) | – (Only GI % higher than 10% are shown) | 31 | 50%
4 | CCCn1cc(/C=N/N=C2\C(=O)Nc3ccc(OC(F)(F)F)cc32)c2ccccc21 [Compound 8b] | – (Only GI % higher than 10% are shown) | – (Only GI % higher than 10% are shown) | – (Only GI % higher than 10% are shown) | – (Only GI % higher than 10% are shown) | 30% | – (Only GI % higher than 10% are shown) | 21% | 25% | – (Only GI % higher than 10% are shown) | – (Only GI % higher than 10% are shown) | 13.32% | – (Only GI % higher than 10% are shown) | 11% | – (Only GI % higher than 10% are shown) | – (Only GI % higher than 10% are shown) | – (Only GI % higher than 10% are shown) | 13% | 29 | 35%
5 | C=CCn1cc(C=NN=C2C(=O)Nc3ccc(Cl)cc32)c2ccccc21 [Compound 10d] | – (Only GI % higher than 10% are shown) | – (Only GI % higher than 10% are shown) | – (Only GI % higher than 10% are shown) | – (Only GI % higher than 10% are shown) | – (Only GI % higher than 10% are shown) | 33% | – (Only GI % higher than 10% are shown) | – (Only GI % higher than 10% are shown) | – (Only GI % higher than 10% are shown) | – (Only GI % higher than 10% are shown) | – (Only GI % higher than 10% are shown) | – (Only GI % higher than 10% are shown) | 19% | – (Only GI % higher than 10% are shown) | – (Only GI % higher than 10% are shown) | – (Only GI % higher than 10% are shown) | – (Only GI % higher than 10% are shown) | 18 | 30%
6 | C=CCn1cc(C=NN=C2C(=O)Nc3ccccc32)c2ccccc21 [Compound 10a] | 30% | – (Only GI % higher than 10% are shown) | 12% | – (Only GI % higher than 10% are shown) | 13% | 50% | – (Only GI % higher than 10% are shown) | 10% | – (Only GI % higher than 10% are shown) | – (Only GI % higher than 10% are shown) | 10% | – (Only GI % higher than 10% are shown) | 25% | 27% | – (Only GI % higher than 10% are shown) | – (Only GI % higher than 10% are shown) | – (Only GI % higher than 10% are shown) | 33 | 56%
